Measurements from patent publication US20080214542A1, “Arylpiperazine Derivatives and their Use as Selective Dopamine D3 Receptor Ligands” (BIOPROJET, priority 2004, published 2008).
Where a name gives a salt, the structure may show the parent alone.

What follows are compounds tested against human dopamine D3 receptor (hD3) (Homo sapiens, UniProt P35462) (assay: Binding of [3H]spiperone to membranes of CHO cells transfected with the human dopamine D3 receptor). Conditions: binding of [3H]spiperone (0.5 to 2 nM), hD3-transfected CHO cell membranes, 60 minutes at ambient temperature; read-out: hD3 Ki.
Sequence of human dopamine D3 receptor (hD3) (P35462 whole entry): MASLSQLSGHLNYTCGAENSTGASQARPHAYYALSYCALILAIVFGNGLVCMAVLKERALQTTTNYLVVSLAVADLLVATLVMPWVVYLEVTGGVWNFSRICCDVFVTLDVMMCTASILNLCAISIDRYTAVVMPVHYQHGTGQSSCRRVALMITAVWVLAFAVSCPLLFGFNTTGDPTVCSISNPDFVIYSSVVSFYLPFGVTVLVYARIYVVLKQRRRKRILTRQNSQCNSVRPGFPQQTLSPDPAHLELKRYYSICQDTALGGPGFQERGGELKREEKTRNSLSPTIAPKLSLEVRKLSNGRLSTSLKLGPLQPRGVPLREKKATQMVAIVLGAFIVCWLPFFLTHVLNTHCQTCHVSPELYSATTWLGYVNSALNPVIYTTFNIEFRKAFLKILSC
Experimental: Biological Results: Determination of the Affinity of the Compounds for the Human Dopamine D3 Receptor
Binding of [^3H]spiperone:
CHO cells were transfected by the gene coding for the human dopamine D3 receptor (hD3). The binding of [^3H]spiperone (0.5 to 2 nM) takes place in the presence of 5 to 10 μg of membranous proteins in a medium containing 120 mM NaCl, 5 mM KCl, and 50 mM Tris HCL pH 7.4; an incubation of 60 minutes at ambient temperature is necessary. The non-specific binding is estimated in the presence of 5 μM of haloperidol. The non-transfected cells are devoid of any binding activity.

Q: `COc1ccc2c(c1)CN(C(=O)CCCCCN1CCN(c3cccc(C(F)(F)F)c3)CC1)C2` [Example 1, 1-(5-methoxyisoindolin-2-yl)-6-[4-(3-trifluoromethylphenyl)piperazin-1-yl]hexan-1-one] was tested. Which Ki did it give?
A: Its Ki is 0.9 nM.

Q: Which Ki does the source give for `N#Cc1ccc2c(c1)CN(C(=O)CCCCCN1CCN(c3cccc(C(F)(F)F)c3)CC1)C2` [Example 3, 1-(5-cyanoisoindolin-2-yl)-6-[4-(3-trifluoromethylphenyl)piperazin-1-yl]-hexan-1-one hydrochloride] here?
A: Its Ki is 2.6 nM.

Q: `O=C(CCCCCN1CCN(c2cccc(C(F)(F)F)c2)CC1)N1Cc2ccc(F)cc2C1` [Example 7, 1-(5-fluoroisoindolin-2-yl)-6-[4-(3-trifluoromethylphenyl)piperazin-1-yl]hexan-1-one] was tested. Which Ki did it give?
A: Its Ki is 1.05 nM.

Q: How did the Ki turn out when `O=C(CCCCCN1CCN(c2cccc(C(F)(F)F)c2)CC1)N1Cc2cc3c(cc2C1)OCO3` [Example 10, 1-(6,7-dihydro-5H-[1,3]dioxolo[4,5-f]isoindol-6-yl)-6-[4-(3-trifluoromethylphenyl)piperazin-1-yl]hexan-1-one] was run?
A: The Ki was 1.17 nM.

Q: With `COC(=O)c1ccc2c(c1)CN(C(=O)CCCCCN1CCN(c3cccc(C(F)(F)F)c3)CC1)C2` [Example 12, 1-(5-methoxycarbonylisoindolin-2-yl)-6-[4-(3-trifluoromethylphenyl)piperazin-1-yl]hexan-1-one hydrochloride] as the compound, how does the Ki read?
A: The Ki was 0.85 nM.

Q: `O=C(CCCCCN1CCN(c2cccc(C(F)(F)F)c2)CC1)N1Cc2ccc(OCCCN3CCCCC3)cc2C1` [Example 24, 1-[5-(3-piperidinopropoxy)isoindolin-2-yl]-6-[4-(3-trifluoromethylphenyl)piperazin-1-yl]hexan-1-one] was tested. Which Ki did it give?
A: The Ki was 1.21 nM.

Q: With `O=C(CCCCCN1CCN(c2cccc3c2CCCC3)CC1)N1Cc2ccccc2C1` [Example 38, 1-isoindolin-2-yl-6-[4-(5,6,7,8-tetrahydro-naphthalen-1-yl)piperazin-1-yl]hexan-1-one] as the compound, how does the Ki read?
A: Its Ki is 0.84 nM.

Q: With `O=C(CCCCCN1CC=C(c2cccc(C(F)(F)F)c2)CC1)N1Cc2ccccc2C1` [Example 50, 1-isoindolin-2-yl-6-[4-(3-trifluoromethylphenyl)-3,6-dihydro-2H-pyridin-1-yl]hexan-1-one] as the compound, how does the Ki read?
A: The Ki was 0.93 nM.

Q: With `O=C(CCCCCN1CCC(c2cccc(C(F)(F)F)c2)CC1)N1Cc2ccccc2C1` [Example 51, 1-isoindolin-2-yl-6-[4-(3-trifluoromethyl-phenyl)-piperidin-1-yl]hexan-1-one] as the compound, how does the Ki read?
A: Its Ki is 19.7 nM.

Same assay, conditions: comparative example, affinity for the dopamine D3 receptor; read-out: Ki

Q: `O=C(CCCCCN1CCN(c2cccc(F)c2)CC1)N1Cc2ccccc2C1` [reference compound] was tested. Which Ki did it give?
A: The Ki was 321 nM.
